In one test the test system is Phytophthora infestans. The experiment in a line: whole plant or invertebrate. In kind it is in vivo. The settings on record: Phytophthora infestans, in Solanum lycopersicum, 96 h, read-out: % control TLB.
Test [1] deals with Erysiphe graminis (f. sp. tritici). Briefly: whole plant or invertebrate. It is filed as in vivo. To be noted: Blumeria graminis; read-out: % control WPM.
Another test concerns A.n. Briefly: Minimum Inhibitory Concentration Test, alternate (Table 4), A.n. The settings on record: Aspergillus niger, TSB, 72 hours. In kind it is cell-based, Aspergillus niger. On the procedure: (§1) A 125 μl aliquot of 10,000 ppm test compound in acetone was added to 4.88 ml of TSB to provide a 250 ppm solution. From this solution, 100 μL was transferred to the first row of two microtiter plate columns. Both replicates and five additional compounds were all serially diluted 1:1 to a final concentration of 0.8 ppm in TSB.
(§2) Inoculation was accomplished by diluting a 24 hr Ps fl culture, four mls per 36 mls of phosphate buffer solution. A Dynatech autoinoculator was used to transfer 1.5 μl of this cell suspension to the microtiter plates. The plates were incubated at 30° C. for 3 days before the lowest concentration at which no growth occurs was recorded in the database. The SOK data and MIC test data on Ps.fl, Ps.ae, E.c, and S.a. bacteria and Candida albicans (C.alb), A.n and A.p fungi are listed in Table 4.

Test [2] relates to Puccinia recondita (f. sp. tritici Races PKB and PLD). The experiment in a line: whole plant or invertebrate. To be noted: Puccinia recondita, 240 h; read-out: % control WLR. It is filed as in vivo.
Test [3] relates to Pellicularia filamentosa (f. sp. sasiki). Briefly: whole plant or invertebrate. The settings on record: 120 h; read-out: % control RSB. In kind it is in vivo.
For test [4], the system named is Pseudoperonospora cubensis. Briefly: whole plant or invertebrate. In kind it is in vivo. To be noted: Pseudoperonospora cubensis, in Cucumis sativus, 168 h; read-out: % control CDM.
A further test relates to Piricularia oryzae. The experiment in a line: whole plant or invertebrate. In kind it is in vivo. To be noted: Pyricularia oryzae, read-out: % control RB.
The test system of the next test is Pseudomonas fluorescens. The experiment in a line: Minimum Inhibitory Concentration Test, alternate (Table 4), Ps.fl. To be noted: Pseudomonas fluorescens, TSB, 72 hours, 30° C. In kind it is cell-based. On the procedure:
as §1, §2

≈ marks a conversion by molar mass, not a printed value.

Usually MIC stands for the smallest concentration in the dilution series that meets the test's criterion for growth inhibition. A low value points to inhibition by little substance.

As to `CCCCCCCCNC(=O)/C=C\SC(C(=O)NCCC)C(=O)NCCC` [Example 19, N-n-octyl-cis-3-[2-(N,N'-di-n-propylmalonodiamido)thio]acrylamide], the pest or weed control at 200 ppm in the test on Phytophthora infestans worked out at 89%; in test [1], 25%; in test [2] it was 62%; in test [3] it was 0%; in test [4], 95%; in the test on Piricularia oryzae, 0%. Also, the MIC in the test with A.n and in the test on Pseudomonas fluorescens was > 500 mg/L throughout.

Consider `CCCCCCCCNC(=O)/C=C\SC(C(=O)NC(C)CC)C(=O)OCC` (stereo not drawn) [Example 16, N-n-octyl-cis-3-[2-(ethyl-N-(1-methylpropyl)malonamido)thio]acrylamide], for which the pest or weed control at 200 ppm in the test on Phytophthora infestans stood at 47%; in test [1], 0%; in test [2], 72%; in test [3] it was 0%; in test [4], 42%; in the test on Piricularia oryzae, 40%. The MIC with A.n and in the test on Pseudomonas fluorescens was > 500 mg/L throughout.

On to `CCCCCCCCNC(=O)/C=C\SC(C(=O)NCc1ccc([N+](=O)[O-])cc1)C(=O)OCC` (stereo not drawn) [Example 64, N-n-octyl-cis-3-{2-[ethyl-N-(4-nitrobenzyl)malonamido]thio}acrylamide], for which the pest or weed control at 100 ppm with Phytophthora infestans worked out at 0%; in test [1], 50%; in test [2], 50%; in test [3], 0%; in test [4], 100%; in the test with Piricularia oryzae, 0%. Further, the MIC in the test with A.n and in the test with Pseudomonas fluorescens was > 250 mg/L throughout.

On to `CCCCCCCCNC(=O)/C=C\SC(C(=O)NCc1ccccc1OC)C(=O)OCC` (stereo not drawn) [Example 56, N-n-octyl-cis-3-{2-[ethyl-N-(2-methoxybenzyl)malonamido]thio}acrylamide], for which the pest or weed control at 100 ppm was 80% in the test on Phytophthora infestans; 0% in test [1]; 0% in test [2]; 0% in test [3]; 100% in test [4]; 90% in the test on Piricularia oryzae. The MIC against A.n was 250 mg/L (≈ 538 µM); in the test with Pseudomonas fluorescens, > 500 mg/L.

Consider `CCCCCCCCCCNC(=O)C(S/C=C\C(=O)NCCCCCCCC)C(=O)OCC` (stereo not drawn) [Example 26, N-n-octyl-cis-3-[2-(ethyl-N-n-decylmalonamido)thio]acrylamide], for which the pest or weed control at 200 ppm in the test on Phytophthora infestans came out at 80%; in test [1] it was 50%; in test [2] it was 75%; in test [3], 0%; in test [4] it was 100%; in the test with Piricularia oryzae it was 50%. Besides, the MIC with A.n and in the test on Pseudomonas fluorescens was > 500 mg/L throughout.

In the case of `CCCCCCCCNC(=O)/C=C\SC(C(=O)Nc1cc(Cl)cc(Cl)c1)C(=O)OCC` (stereo not drawn) [Example 55, N-n-octyl-cis-3-{2-[ethyl-N-(3,5-dichlorophenyl)malonamido]thio}acrylamide], the pest or weed control at 100 ppm turned out to be 80% in the test with Phytophthora infestans; 50% in test [1]; 0% in test [2]; 0% in test [3]; 85% in test [4]; 95% in the test on Piricularia oryzae. Besides, the MIC with A.n and with Pseudomonas fluorescens was > 500 mg/L throughout.

For the molecule `CCCCCCCCNC(=O)/C=C\SC(C(=O)NCc1ccc(OC)cc1)C(=O)OCC` (stereo not drawn) [Example 60, N-n-octyl-cis-3-{2-[ethyl-N-(4-methoxybenzyl)malonamido]thio}acrylamide], the pest or weed control at 100 ppm in the test with Phytophthora infestans amounted to 80%; in test [1], 0%; in test [2], 0%; in test [3] it was 0%; in test [4] it was 99%; in the test on Piricularia oryzae, 0%. The MIC with A.n and in the test with Pseudomonas fluorescens was > 250 mg/L throughout.

In the case of `CCCCCCCCNC(=O)/C=C\SC(C(=O)Nc1ccccc1Cl)C(=O)OCC` (stereo not drawn) [Example 21, N-n-octyl-cis-3-{2-[ethyl-N-(2-chlorophenyl)malonamido]thio}acrylamide], the pest or weed control at 200 ppm in the test on Phytophthora infestans turned out to be 97%; in test [1], 62%; in test [2] it was 75%; in test [3] it was 0%; in test [4] it was 97%; in the test with Piricularia oryzae, 100%. In addition, the MIC in the test with A.n is 8 mg/L (≈ 17.6 µM); with Pseudomonas fluorescens, > 500 mg/L.

In the case of `CCCCCCCCNC(=O)/C=C\SC(C(=O)NCc1ccccc1)C(=O)OCC` (stereo not drawn) [Example 20, N-n-octyl-cis-3-[2-(ethyl-N-benzylmalonamido)thio]acrylamide], the pest or weed control at 200 ppm turned out to be 90% in the test with Phytophthora infestans; 0% in test [1]; 75% in test [2]; 0% in test [3]; 100% in test [4]; 90% with Piricularia oryzae. The MIC in the test on A.n and against Pseudomonas fluorescens was > 500 mg/L each time.

Take `CCCCCCCCNC(=O)/C=C\SC(C(C)=O)C(=O)Nc1ccccc1C` (stereo not drawn) [Example 57, N-n-octyl-cis-3-{2-[N-(2-methylphenyl)acetoacetamido]thio}acrylamide]: the pest or weed control at 100 ppm with Phytophthora infestans is 0%; in test [1] it was 50%; in test [2] it was 0%; in test [3] it was 100%; in test [4], 0%; in the test on Piricularia oryzae, 80%. Also, the MIC is 250 mg/L (≈ 618 µM) against A.n and > 500 mg/L against Pseudomonas fluorescens.

For the molecule `CCCCCCCCNC(=O)/C=C\SC(C(=O)NCCC)C(=O)OCC` (stereo not drawn) [Example 15, N-n-octyl-cis-3-[2-(ethyl-N-n-propylmalonamido)thio]acrylamide], the pest or weed control at 200 ppm amounted to 89% in the test on Phytophthora infestans; 25% in test [1]; 62% in test [2]; 100% in test [4]; 40% with Piricularia oryzae. Moreover, the results for the MIC in the test on A.n and with Pseudomonas fluorescens were 63 mg/L (≈ 163 µM) and > 500 mg/L, respectively. Moreover, in test [3], the pest or weed control at 5200 ppm amounted to 25%.

For `CCCCCCCCNC(=O)/C=C\SC(C(=O)Nc1cccc(Cl)c1C)C(=O)OCC` (stereo not drawn) [Example 39, N-n-octyl-cis-3-{2-[ethyl-N-(2-methyl-3-chlorophenyl)malonamido]thio}acrylamide], the pest or weed control at 100 ppm in the test on Phytophthora infestans stood at 100%; in test [1], 50%; in test [2] it was 75%; in test [3] it was 0%; in test [4], 100%; in the test on Piricularia oryzae, 50%. The MIC against A.n was 500 mg/L (≈ 1070 µM); against Pseudomonas fluorescens it was > 500 mg/L.

Take `CCCCCCCCNC(=O)/C=C\SC(C(C)=O)C(=O)Nc1ccccc1` (stereo not drawn) [Example 31, N-n-octyl-cis-3-[2-(N-phenylacetoacetamido)thio]acrylamide]: the pest or weed control at 200 ppm with Phytophthora infestans was 95%; in test [1], 0%; in test [2], 50%; in test [3], 0%; in test [4], 100%; in the test on Piricularia oryzae, 95%. For the same molecule, the MIC in the test with A.n amounted to 250 mg/L (≈ 640 µM); in the test on Pseudomonas fluorescens, 500 mg/L (≈ 1280 µM).

Regarding `CCCCCCCCCCCCNC(=O)C(S/C=C\C(=O)NCCCCCCCC)C(=O)OCC` (stereo not drawn) [Example 24, N-n-octyl-cis-3-[2-(ethyl-N-n-dodecylmalonamido)thio]acrylamide], the pest or weed control at 200 ppm with Phytophthora infestans was 50%; in test [1], 0%; in test [2] it was 50%; in test [3], 0%; in test [4], 100%; with Piricularia oryzae, 0%. For the same molecule, the results for the minimal inhibitory concentration (MIC) in the test on A.n and against Pseudomonas fluorescens were 250 mg/L (≈ 488 µM) and > 500 mg/L, respectively.

Take `CCCCCCCCNC(=O)/C=C\SC(C(=O)Nc1ccc(Cl)cc1)C(=O)OCC` (stereo not drawn) [Example 34, N-n-octyl-cis-3-{2-[ethyl-N-(4-chlorophenyl)malonamido]thio}acrylamide]: the pest or weed control at 100 ppm in the test on Phytophthora infestans turned out to be 50%; in test [1], 50%; in test [2], 50%; in test [3], 0%; in test [4] it was 85%; in the test on Piricularia oryzae it was 0%. Besides, the minimum inhibitory concentration (MIC) against A.n and against Pseudomonas fluorescens was > 500 mg/L each time.

Source of the values: US5118681A (priority 1989, dated 1992).
